Experimental findings from patent EP0623131B1 (ANGELINI RICERCHE S.p.A. SOCIETA' CONSORTILE, priority 1992, dated 1993) are described below.

This series can be described thus: DL50 (acute lethal dose). Particulars: species, route and unit not given.

For the compound `O=c1n(CCCN2CCN(c3cccc(Cl)c3)CC2)nc2ccccn12` [trazodone, Trazodone, reference compound], the DL₅₀ is listed as not below 200. In the case of `CC(CN1CCN(c2cccc(Cl)c2)CC1)Cn1nc2ccccn2c1=O` (centres unmarked) [(I) R'=R"=R'''=H; R=CH₃, 2-[3-[4-(3-chlorophenyl)-1-piperazinyl]-2-methylpropyl]-1,2,4-triazole[4,3-a]-pyridin-3-(2H)-one], the DL₅₀ is listed as not above 600.

Turning to `CC1CN(CCCn2nc3ccccn3c2=O)CCN1c1cccc(Cl)c1` (centres unmarked) [(I) R=R'=R"=H; R'''=CH₃, 2-[3-[4-(3-chlorophenyl)-1-(3-methyl)-piperazinyl]-propyl]-1,2,4-triazole-[4,3-a]-pyridin-3(2H)-one], the DL₅₀ is reported as not above 600. `CC(CCn1nc2ccccn2c1=O)N1CCN(c2cccc(Cl)c2)CC1` (centres unmarked) [(I) R=R"=R'''=H; R'=CH₃, 2-[3-[4-(3-chlorophenyl)-1-piperazinyl]-3-methylpropyl]-1,2,4-triazole-[4,3-a]-pyridin-3(2H)-one] displayed a DL₅₀ not above 300.

With `CC1CN(c2cccc(Cl)c2)CCN1CCCn1nc2ccccn2c1=O` (centres unmarked) [(I) R=R'=R'''=H; R"=CH₃, 2-[3-[4-(3-chlorophenyl)-1-(2-methyl)-piperazinyl]-propyl]-1,2,4-triazole-[4,3-a]-pyridin-3(2H)-one], the DL₅₀ is 300.
